Data from patent US7696197B2, “Use of a phenothiazine derivative for preventing and/or treating hearing loss” (Societe de Conseils de Recherches et d'Applications …, priority 2004, dated 2010).

Tested on: neuromast acoustic hair cells
Test: Ototoxicity induced by gentamicin in zebrafish, DASPEI staining of neuromast acoustic hair cells
Format: in vivo
Details: 24 hours, fish aged 5 days
Source text: Zebrafish display the sensory organs on the surface of their bodies, called neuromasts. In these fish, the neuromast acoustic hair cells can be stained with DASPEI and this staining reflects the number of acoustic hair cells. These acoustic hair cells are structurally and functionally similar to the internal acoustic hair cells of the human ear.
Damage to the internal acoustic hair cells is induced in zebrafish by gentamicin. In order to test the effect of compound (1) on the protection of the acoustic hair cells damaged by gentamicin, the compound (1) was administered as a co-treatment with gentamicin. The internal acoustic hair cells are then stained and quantified.
The study is undertaken on fish aged 5 days incubated with 1 μg/ml of gentamicin for 24 hours in the presence or in the absence of compound (1). Controls are carried out in parallel; single vehicle (1% DMSO; positive control). The fish treated with gentamicin are the negative controls.
DASPEI (2,4-dimethyl-aminostyryl-N-ethyl pyridinium iodide) staining is carried out in order to visualize the acoustic hair cells in vivo (n=5 per group). Morphometric analysis is used in order to quantify the staining signal of the acoustic hair cells. The signal for DASPEI staining of the positive controls was defined as 100%. […]

## gentamicin
Gentamicin 1 μg/ml alone (negative control)
  DASPEI staining signal of acoustic hair cells, % of the control signal: 31.5±4.2%
Gentamicin 1 μg/ml alone
  loss of the acoustic hair cells following treatment with gentamicin: 68.5±4.9%
